What was measured:
[1] = tested on: NO production in LPS-induced RAW 264.7 macrophages; assay: Inhibition of nitric oxide (NO) production in LPS-induced macrophages (Griess); type: cell-based, mouse; conditions: for IC50: LPS (1 μg/mL) 24 h, RAW 264.7 mouse macrophages, Griess, mean ± SD, triplicate; for inhibitory activities against NO production (in words): LPS-induced RAW 264.7 macrophages
Method: (§1) Compounds 1–6 were evaluated for the inhibitory activity of nitric oxide (NO) production in lipopolysaccharide (LPS)-induced RAW 246.7 mouse macrophages. The cells (180 μL) with a density of 5 × 10^5 cells/mL of media on a 96-well plate were put under 37 °C at a 5% CO2 condition. After a 24 h preincubation, the seeded cells were treated with gradient dilutions of 1-6 with a maximum concentration of 100 μM, followed by stimulation with LPS (1 μg/mL) for 24 h. Then 50 μL cell culture supernatant solution was moved to a new plate that contained NO detection Griess A (50 μL) and Griess B (50 μL). Finally, the absorbance was measured at 540 nm. Aminoguanidine was used as a positive control and all data were obtained in triplicate. The viability of RAW264.7 cells was evaluated according to the SRB method simultaneously to exclude the interference of the cytotoxicity of 1–6. The RAW264.7 cells were purchased from the Cell Bank of the Chinese Academy of Sciences.

[2] = Cytotoxicity / viability of macrophages (SRB method); type: cell-based, mouse; conditions: mouse, RAW264.7 macrophage cells, RAW264.7 macrophages
Method: as §1

RAW264.7 cells = assay: as above; type: cell-based, mouse; conditions: RAW264.7 macrophages
Method: as §1

| IC50 [1] | IC50 ([1]; Mus musculus, RAW264.7, 24 h) | melting point | Compound | inhibitory activities against NO production (in words) [1] | IC50 at 24 h [2] | IC50 (RAW264.7 cells) |
| --- | --- | --- | --- | --- | --- | --- |
| 51.9 ± 1.4 µM | 51.9 to 55.9 µM |  | CCC1(O)C(=O)C=C(OCCc2ccc(O)cc2)CC1O (stereo not shown) [Compound 3, Trieffusol C] | moderate inhibitory activities | > 200 µM |  |
|  | 65.5 ± 1.3 µM |  | C/C=C/C(=O)c1c(OC)cc2c(c1O)CCO2 [Compound 5, Trieffusol E] |  | > 200 µM |  |
|  | 51.9 to 55.9 µM |  | CCc1c(O)cc2c(c1O)C(=O)CC(C)O2 (stereo not shown) [Compound 4, Trieffusol D] | moderate inhibitory activities | > 200 µM |  |
|  | > 200 µM | 149 to 150 °C | CCC1(O)C(=O)C2=C(CC1O)OC1=C(C(=O)C(O)(CC)C(O)C1)C2c1ccc(O)cc1 (stereo not shown) [Compound 1, Trieffusol A] |  | > 200 µM |  |
| 108 ± 3 µM |  |  | CCC1(O)C(=O)C2=C(CC1O)OC1=C(C(=O)C(O)(CC)C(O)C1)C2c1ccc(O)cc1 (stereo not shown) [Compound 2, Trieffusol B] |  |  | > 200 µM |
|  | 54.3 ± 2.2 µM |  | CCc1c(O)cc2c(c1O)C(=O)C[C@@H](C)O2 [Compound 4a, (+)-Trieffusol D] |  | > 200 µM |  |
|  | 55.9 ± 1.6 µM |  | CCc1c(O)cc2c(c1O)C(=O)C[C@H](C)O2 [Compound 4b, (−)-Trieffusol D] |  | > 200 µM |  |
|  | 111 ± 4.6 µM |  | CCCc1cc2c(c(O)c1CO)COC2=O [Compound 6, Trieffusol F] |  | > 200 µM |  |

| Compound | IC50 [1] | IC50 ([1]; Mus musculus, RAW264.7, 24 h) | melting point | inhibitory activities against NO production (in words) [1] | IC50 at 24 h [2] | IC50 (RAW264.7 cells) |
| --- | --- | --- | --- | --- | --- | --- |
| N=C(N)NN [Aminoguanidine, reference compound] | 24.8 ± 0.8 µM |  |  |  |  | > 200 µM |

Reference: paper PMC7143758, “Highly Substituted Phenol Derivatives with Nitric Oxide Inhibitory Activities from the Deep-Sea-Derived Fungus Trichobotrys effuse FS524” (Marine Drugs, 2020)
